For 17 compounds, MIC results are on record in patent publication US11180504B2 (ORCHID PHARMA LTD., priority 2016, dated 2021).

Test [1] has as its system methicillin-sensitive Staphylococcus aureus. The test is described as follows: MIC by broth micro-dilution (CLSI), methicillin-sensitive S. aureus. Particulars: MSSA S. aureus ATCC29213. It is filed as cell-based. Background: In broth dilution the organism is exposed to a series of concentrations in liquid medium.
Test [2] has as its system carbapenem sensitive Escherichia coli. The test can be described thus: MIC by broth micro-dilution (CLSI), carbapenem sensitive E. coli. It is filed as cell-based.
The subject of test [3] is carbapenemase producing K. pneumoniae. The test can be described thus: MIC by broth micro-dilution (CLSI), carbapenemase producing K. pneumoniae. Type of test: cell-based, Klebsiella pneumoniae.
Test [4] relates to carbapenem sensitive Pseudomonas aeruginosa. The test is described as follows: MIC by broth micro-dilution (CLSI), carbapenem sensitive P. aeruginosa. Type of test: cell-based.
Where [5] appears, read: Staphylococcus aureus, ATCC 29213 / MSSA, read-out: MIC.
The mark [6] stands for this setting: Escherichia coli, ATCC25922, ESBL −ve E. coli ATCC25922, read-out: MIC.
The mark [7] stands for this setting: Klebsiella pneumoniae, ATCCBAA1705, KPC-2 K. pneumoniae ATCC BAA-1705, read-out: MIC.
Setting [8] is: Pseudomonas aeruginosa, ATCC27853, Meropenem susceptible P. aeruginosa ATCC27853, read-out: MIC.
[9] abbreviates: KPC-2 K. pneumoniae ATCC BAA-1705.
Setting [10] is: Meropenem susceptible P. aeruginosa ATCC27853.

Each structure is given as a SMILES string. ≈ marks a conversion by molar mass, not a printed value. Where two headings read alike, the source gives them in different places.

The MIC is the smallest concentration in the dilution series that meets the test's criterion for growth inhibition. In the case of `C[C@@H](NC(=O)Cn1cnnn1)[C@H]1C(=O)N2C(C(=O)O)=C(S[C@@H]3CN[C@H](C(=O)N4CC[C@@H](CN)C4)C3)[C@H](C)[C@H]12` [Example 472, (4R,5S,6R)-6-((R)-1-(2-(1H-tetrazol-1-yl)acetamido)ethyl)-3-((3S,5S)-5-((S)-3-(aminomethyl)pyrrolidine-1-carbonyl)pyrrolidin-3-ylthio)-4-methyl-7-oxo-1-azabicyclo[3.2.0]hept-2-ene-2-carboxylic acid], the MIC in test [1] (setting [5]) worked out at 4 µg/mL (≈ 7.3 µM); in test [2] (setting [6]) it was 0.5 µg/mL (≈ 0.913 µM); in test [3] (setting [7]), 2 µg/mL (≈ 3.65 µM); in test [4] (setting [8]), 2 µg/mL (≈ 3.65 µM).
As for `C[C@@H](NC(=O)Cn1nnnc1C(F)F)[C@H]1C(=O)N2C(C(=O)O)=C(S[C@@H]3CN[C@H](C(=O)N(C)C)C3)[C@H](C)[C@H]12` [Example 350, (4R,5S,6R)-6-((R)-1-(2-(5-(difluoromethyl)-1H-tetrazol-1-yl)acetamido)ethyl)-3-((3S,5S)-5-(dimethylcarbamoyl)pyrrolidin-3-ylthio)-4-methyl-7-oxo-1-azabicyclo[3.2.0]hept-2-ene-2-carboxylic acid], the minimal inhibitory concentration (MIC) turned out to be 2 µg/mL (≈ 3.69 µM) in test [1] (setting [5]), 0.25 µg/mL (≈ 0.461 µM) in test [2] (setting [6]), 1 µg/mL (≈ 1.84 µM) in test [3] (setting [7]) and 128 µg/mL (≈ 236 µM) in test [4] (setting [8]).
For `C[C@@H](NC(=O)Cn1cnnn1)[C@H]1C(=O)N2C(C(=O)O)=C(S[C@@H]3CN[C@H](C(=O)N4CCCN(C(=N)N)CC4)C3)[C@H](C)[C@H]12` [Example 517, (4R,5S,6R)-6-((R)-1-(2-(1H-tetrazol-1-yl)acetamido)ethyl)-3-((3S,5S)-5-(4-carbamimidoyl-1,4-diazepane-1-carbonyl)pyrrolidin-3-ylthio)-4-methyl-7-oxo-1-azabocyclo[3.2.0]hept-2-ene-2-carboxylic acid] the same measures were 4 µg/mL (≈ 6.78 µM), 0.5 µg/mL (≈ 0.848 µM), 2 µg/mL (≈ 3.39 µM) and 4 µg/mL (≈ 6.78 µM).
Taken in the same sequence, the figures for `C[C@H]([C@H]1C(=O)N2C(C(=O)O)=C(S[C@@H]3CN[C@H](C(=O)N4CC[C@@H](N)C4)C3)[C@H](C)[C@H]12)n1nnc(N)n1` [Example 327, (4R,5S,6S)-6-((R) - 1-(5-amino-2H-tetrazol-2-yl)ethyl)-3-((3S,5S)-5-((R)-3-aminopyrrolidine-1-carbonyl)pyrrolidin-3-ylthio)-4-methyl-7-oxo-1-azabicyclo[3.2.0]hept-2-ene-2-carboxylic acid] were 1 µg/mL (≈ 2.03 µM), 2 µg/mL (≈ 4.07 µM), 32 µg/mL (≈ 65.1 µM) and 64 µg/mL (≈ 130 µM).
For `C[C@@H](NC(=O)Cn1cnnn1)[C@H]1C(=O)N2C(C(=O)O)=C(S[C@@H]3CN[C@H](C(=O)N4CC(N)C(CO)C4)C3)[C@H](C)[C@H]12` (single isomer, unassigned) [Example 586] the same measures were 4 µg/mL (≈ 7.1 µM), 0.25 µg/mL (≈ 0.444 µM), 1 µg/mL (≈ 1.77 µM) and 2 µg/mL (≈ 3.55 µM).
For the compound `C[C@@H](NC(=O)C(F)F)[C@H]1C(=O)N2C(C(=O)O)=C(S[C@@H]3CN[C@@H](C(=O)N(C)C)C3)[C@H](C)[C@H]12` [Example 248], the minimal inhibitory concentration (MIC) is 1 µg/mL (≈ 2.17 µM) in test [1] (setting [5]), 1 µg/mL (≈ 2.17 µM) in test [2] (setting [6]), 4 µg/mL (≈ 8.69 µM) in test [3] (setting [7]) and greater than 128 µg/mL in test [4] (setting [8]).
`C[C@@H](NC(=O)CN)[C@H]1C(=O)N2C(C(=O)O)=C(S[C@@H]3CN[C@H](C(=O)N4CC[C@@H](N)C4)C3)[C@H](C)[C@H]12` [Example 245]: the MIC came out at 8 µg/mL (≈ 16.6 µM) in test [1] (setting [5]), 2 µg/mL (≈ 4.16 µM) in test [2] (setting [6]), 4 µg/mL (≈ 8.32 µM) in test [3] (setting [7]) and 4 µg/mL (≈ 8.32 µM) in test [4] (setting [8]).
For the compound `CNC(=O)CC(=O)N[C@H](C)[C@H]1C(=O)N2C(C(=O)O)=C(S[C@@H]3CN[C@H](C(=O)N(C)C)C3)[C@H](C)[C@H]12` [Example 272], the MIC in test [1] (setting [5]) is 128 µg/mL (≈ 266 µM); in test [2] (setting [6]) it was 64 µg/mL (≈ 133 µM); in test [3] (setting [7]), 64 µg/mL (≈ 133 µM); in test [4] (setting [8]), greater than 128 µg/mL.
For the compound `C[C@@H](NC(=O)Cn1cnnn1)[C@H]1C(=O)N2C(C(=O)O)=C(S[C@@H]3CN[C@H](C(=O)N4CC[N+](C)(C)CC4)C3)[C@H](C)[C@H]12` [Example 360, 4-((2S,4S)-((4R,5S,6R)-6-((R)-1-(2-(1H-tetrazol-1-yl)acetamido)ethyl)-2-carboxy-4-methyl-7-oxo-1-azabicyclo[3.2.0]hept-2-en-3-ylthio)pyrrolidine-2-carbonyl)-1,1-dimethylpiperazin-1-ium iodide], the MIC is 8 µg/mL in test [1] (setting [5]), 0.5 µg/mL in test [2] (setting [6]), 2 µg/mL in test [3] (setting [7]) and 1 µg/mL in test [4] (setting [8]).
As for `C[C@@H](NC(=O)C(F)F)[C@H]1C(=O)N2C(C(=O)O)=C(S[C@@H]3CN[C@H](C(=O)N4CCC5CNCCC54)C3)[C@H](C)[C@H]12` (stereo partly drawn) [Example 486, (4R,5S,6R)-6-((R)-1-(2,2-difluoroacetamido)ethyl)-4-methyl-3-((3S,5S)-5-(octahydro-1H-pyrrolo[3,2-c]pyridine-1-carbonyl)pyrrolidin-3-ylthio)-7-oxo-1-azabicyclo[3.2.0]hept-2-ene-2-carboxylic acid], the MIC in test [1] (setting [5]) came to 2 µg/mL (≈ 3.69 µM); in test [2] (setting [6]), 0.5 µg/mL (≈ 0.923 µM); in test [3] (setting [7]), 8 µg/mL (≈ 14.8 µM); in test [4] (setting [8]), 64 µg/mL (≈ 118 µM).
Taken in the same sequence, the figures for `C[C@@H](NC(=O)C(C)(C)n1cnnn1)[C@H]1C(=O)N2C(C(=O)O)=C(S[C@@H]3CN[C@H](C(=O)N(C)C)C3)[C@H](C)[C@H]12` [Example 318, (4R,5S,6R)-3-((3S,5S)-5-(dimethylcarbamoyl)pyrrolidin-3-ylthio)-4-methyl-6-((R) - 1-(2-methyl-2-(1H-tetrazol-1-yl)propanaraido)ethyl)-7-oxo-1-azabicyclop[3.2.0]hept-2-ene-2-carboxylic acid] were 16 µg/mL (≈ 30.7 µM), 2 µg/mL (≈ 3.84 µM), 128 µg/mL (≈ 246 µM) and greater than 128 µg/mL.
Regarding `C[C@@H](NC(=O)Cn1cnnn1)[C@H]1C(=O)N2C(C(=O)O)=C(S[C@@H]3CN[C@H](C(=O)N4CCC5(CC6CCC(C5)N6)C4)C3)[C@H](C)[C@H]12` (stereo partly drawn) [Example 397, (4R,5S,6R)-6-((R)-1-(2-(1H-tetrazol-1-yl)acetamido)ethyl)-3-((3S,5S)-5-(8-azaspiro[bicyclo[3.2.1]octane-3,3′-pyrrolidine]-1′-ylcarbonyl)pyrrolidin-3-ylthio)-4-methyl-7-oxo-1-azabicyclo[3.2.0]hept-2-ene-2-carboxylic acid], the MIC in test [1] (setting [5]) is 2 µg/mL (≈ 3.26 µM); in test [2] (setting [6]) it was 0.25 µg/mL (≈ 0.407 µM); in test [3] (Klebsiella pneumoniae, ATCCBAA1705) it was 1 µg/mL (≈ 1.63 µM); in test [4] (setting [8]) it was 2 µg/mL (≈ 3.26 µM).
Regarding `C[C@@H](NC(=O)Cn1cnnn1)[C@H]1C(=O)N2C(C(=O)O)=C(S[C@@H]3CN[C@H](C(=O)N4CCC5CNCC54)C3)[C@H](C)[C@H]12` (single isomer, unassigned) [Example 467], the MIC in test [1] came out at 8 µg/mL (≈ 14.3 µM); in test [2] (ESBL −ve E. coli ATCC25922) it was 1 µg/mL (≈ 1.79 µM); in test [3] (setting [9]) it was 2 µg/mL (≈ 3.57 µM); in test [4] (setting [10]), 8 µg/mL (≈ 14.3 µM).
In the case of `C[C@@H](NC(=O)Cn1cnnn1)[C@H]1C(=O)N2C(C(=O)O)=C(S[C@@H]3CN[C@H](C(=O)N4CCC5(CCNC5)C4)C3)[C@H](C)[C@H]12` (single isomer, unassigned) [Example 493], the MIC came to 2 µg/mL (≈ 3.49 µM) in test [1], 0.125 µg/mL (≈ 0.218 µM) in test [2] (ESBL −ve E. coli ATCC25922), 1 µg/mL (≈ 1.74 µM) in test [3] (setting [9]) and 0.5 µg/mL (≈ 0.872 µM) in test [4] (setting [10]).
Regarding `C[C@@H](NC(=O)Cn1cnnn1)[C@H]1C(=O)N2C(C(=O)O)=C(S[C@@H]3CN[C@H](C(=O)N4CCC(N5CC(O)C5)CC4)C3)[C@H](C)[C@H]12` [Example 426, (4R,5S,6R)-6-((R)-1-(2-(1H-tetrazol-1-yl)acetamido)ethyl)-3-((3S,5S)-5-(4-(3-hydroxyazetidin-1-yl]piperidine-1-carbonyl)pyrrolidin-3-ylthio)-4-methyl-7-oxo-1-azabicyclo[3.2.0]hept-2-ene-2-carboxylic acid], the MIC is 4 µg/mL (≈ 6.63 µM) in test [1] (setting [5]), 0.25 µg/mL (≈ 0.414 µM) in test [2] (setting [6]), 1 µg/mL (≈ 1.66 µM) in test [3] (setting [7]) and 2 µg/mL (≈ 3.31 µM) in test [4] (setting [8]).
For `C[C@@H](NC(=O)Cn1cnnn1)[C@H]1C(=O)N2C(C(=O)O)=C(S[C@@H]3CN[C@H](C(=O)N4CCC(CNC(=O)CN)CC4)C3)[C@H](C)[C@H]12` [Example 422, (4R,5S,6R)-6-((R)-1-(2-(1H-tetrazol-1-yl)acetamido)ethyl)-3-((3S,5S)-5-(4-((2-aminoacetamido)methyl)piperidine-1-carbonyl)pyrrolidin-3-ylthio)-4-methyl-7-oxo-1-azabicyclo[3.2.0]hept-2-ene-2-carboxylic acid] the same measures were 4 µg/mL (≈ 6.46 µM), 0.25 µg/mL (≈ 0.404 µM), 2 µg/mL (≈ 3.23 µM) and 4 µg/mL (≈ 6.46 µM).
Taken in the same sequence, the figures for `C[C@@H](NC(=O)Cn1cnnn1)[C@H]1C(=O)N2C(C(=O)O)=C(S[C@@H]3CN[C@H](C(=O)N4C[C@@H](N)C[C@H]4CNS(N)(=O)=O)C3)[C@H](C)[C@H]12` [Example 454, (4R,5S,6R)-6-((R)-1-(2-(1H-tetrazol-1-yl)acetamido)ethyl)-3-((3S,5S)-5-((2S,4S)-4-amino-2-((sulfamoylamino)-methyl)pyrrolidine-1-carbonyl)pyrrolidin-3-ylthio)-4-methyl-7-oxo-1-azabicyclo[3.2.0]hept-2-ene-2-carboxylic acid] were 8 µg/mL (≈ 12.5 µM), 0.5 µg/mL (≈ 0.779 µM), 4 µg/mL (≈ 6.23 µM) and 4 µg/mL (≈ 6.23 µM).
